# Measured values as given in US9028845B2, “Chimeric immunomodulatory compounds and methods of using the same-IV” (Dynavax Technologies Corporation, priority 2001, dated 2015).
# Entries after “also recorded” stand apart in the source; their conditions may differ.
# Test system: human PBMCs
# Assay: Human PBMC cytokine response assay (IFN-γ and IFN-α in cell-free medium by ELISA), with or without cPLGA;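 as to IFN-α (pg/ml) mean: 20 µg/mL compound for 24 hours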;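 as to IFN-γ (pg/ml) mean: 20 µg/mL compound for 24 hours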
# Assay type: cell-based
# Details: for IFN-a / IFN-g / IFN-a mean / IFN-g mean: Table 25; for IFN-a mean / IFN-g mean: mean of donors 28250-28253; for IFN-γ (pg/ml) 28065: donor 28065 (high background), 1000 = outside assay limits; for IFN-α (pg/ml) 28065: donor 28065; for IFN-α (pg/ml) 28066 / IFN-γ (pg/ml) 28066: donor 28066; for IFN-α (pg/ml) 28067 / IFN-γ (pg/ml) 28067: donor 28067; for IFN-α (pg/ml) 28068 / IFN-γ (pg/ml) 28068: donor 28068; for immunomodulatory activity (IFN-γ / IFN-α secretion), in words: used alone (no cPLGA)
# [1] = donor 28250, polynucleotides/spacers at amounts equivalent to the CIC, spacers alone 9 uM
# [2] = 20 ug/ml, 24 h, + PLGA = premixed with 100 μg/ml cPLGA
# [3] = mean of Donors 3-4, 20 μg/ml, 24 h
# [4] = mean of donors 28065-28068, 20 ug/ml, 24 h, + PLGA = premixed with 100 μg/ml cPLGA
# [5] = mean of donors 110, 112, 119, 120, Table 14
# [6] = Table 24, mean of donors 28234-28237
substance,measurement,setting,value
"5′-AGATGAT-3′ [Compound P-4, reference compound]",IFN-α (pg/ml) Donor 3,"20 μg/ml, 24 h",0 pg/mL
same,IFN-γ (pg/ml) Donor 3,"20 μg/ml, 24 h",0 pg/mL
same,IFN-α (pg/ml) Donor 4,"20 μg/ml, 24 h",58 pg/mL
same,IFN-γ (pg/ml) Donor 4,"20 μg/ml, 24 h",3 pg/mL
same,IFN-a,donor 28250,16 pg/mL
same,IFN-g,[1],72 pg/mL
same,IFN-a,donor 28251,16 pg/mL
same,IFN-g,donor 28251,1 pg/mL
same,IFN-a,donor 28252,16 pg/mL
same,IFN-g,donor 28252,43 pg/mL
same,IFN-a,donor 28253,16 pg/mL
same,IFN-g,donor 28253,1 pg/mL
same,IFN-a mean,,16 pg/mL
same,IFN-g mean,,29 pg/mL
same,IFN-γ (pg/ml) 28065,[2],93 pg/mL
same,IFN-α (pg/ml) 28065,[2],0 pg/mL
same,IFN-α (pg/ml) 28066,[2],0 pg/mL
same,IFN-γ (pg/ml) 28066,[2],1 pg/mL
same,IFN-α (pg/ml) 28067,[2],9 pg/mL
same,IFN-γ (pg/ml) 28067,[2],1 pg/mL
same,IFN-α (pg/ml) 28068,[2],0 pg/mL
same,IFN-γ (pg/ml) 28068,[2],1 pg/mL
same,IFN-α (pg/ml) mean,[3],29 pg/mL
same,IFN-γ (pg/ml) mean,[3],1 pg/mL
same,IFN-α (pg/ml) mean,[4],2 pg/mL
same,IFN-γ (pg/ml) mean,[4],24 pg/mL
same,"immunomodulatory activity (IFN-γ / IFN-α secretion), in words",,did not have immunomodulatory activity
5′-TCGTCGA-3′-HEG-5′-AACGTTC-3′-HEG-5′-TCGTCGA-3′ [Compound C-55],IFN-α,"Table 13, donor 28156",9 pg/mL
same,IFN-γ,"Table 13, donor 28156",511 pg/mL
same,IFN-α,"Table 13, donor 28157",5 pg/mL
same,IFN-γ,"Table 13, donor 28157",566 pg/mL
same,IFN-α,"Table 13, donor 28158",63 pg/mL
same,IFN-γ,"Table 13, donor 28158",55 pg/mL
same,IFN-α,"Table 13, donor 28159",3 pg/mL
same,IFN-γ,"Table 13, donor 28159",186 pg/mL
same,IFN-α mean,"Table 13, mean of donors",20 pg/mL
same,IFN-γ mean,"Table 13, mean of donors",329 pg/mL
5′-TTCGTTT-3′-HEG-5′-TTCGTTT-3′-HEG-5′-TTCGTTT-3′ [Compound C-46],IFN-α,"Table 10, donor 28042",24 pg/mL
same,IFN-γ,"Table 10, donor 28042",399 pg/mL
same,IFN-α,"Table 10, donor 28043",73 pg/mL
same,IFN-γ,"Table 10, donor 28043",814 pg/mL
same,IFN-α,"Table 10, donor 28044",26 pg/mL
same,IFN-γ,"Table 10, donor 28044",480 pg/mL
same,IFN-α,"Table 10, donor 28045",3 pg/mL
same,IFN-γ,"Table 10, donor 28045",63 pg/mL
same,IFN-α mean,"Table 10, mean of donors",31 pg/mL
same,IFN-γ mean,"Table 10, mean of donors",439 pg/mL
same,IFN-α,"donor 110, Table 14",58 pg/mL
same,IFN-γ,"donor 110, Table 14",1224 pg/mL
same,IFN-α,"donor 112, Table 14",2 pg/mL
same,IFN-γ,"donor 112, Table 14",400 pg/mL
same,IFN-α,"donor 119, Table 14",208 pg/mL
same,IFN-γ,"donor 119, Table 14",68 pg/mL
same,IFN-α,"donor 120, Table 14",48 pg/mL
same,IFN-γ,"donor 120, Table 14",36 pg/mL
same,IFN-α (pg/ml) mean,[5],79 pg/mL
same,IFN-γ (pg/ml) mean,[5],432 pg/mL
same,"immunomodulatory activity (IFN-γ / IFN-α secretion), in words",,more active than other CG-containing CICs
HEG-5′-TCGTCG-3′-HEG-5′-ACGTTCG-3′-HEG-5′-AGATGAT-3′-TEG (phosphodiester linkages) [Compound C-31],IFN-α,"Table 9, donor 28089",158 pg/mL
same,IFN-γ,"Table 9, donor 28089",0 pg/mL
same,IFN-α,"Table 9, donor 28090",26 pg/mL
same,IFN-γ,"Table 9, donor 28090",0 pg/mL
same,IFN-α,"Table 9, donor 28098",62 pg/mL
same,IFN-γ,"Table 9, donor 28098",0 pg/mL
same,IFN-α,"Table 9, donor 28099",29 pg/mL
same,IFN-γ,"Table 9, donor 28099",2 pg/mL
same,IFN-α mean,"Table 9, mean of donors",69 pg/mL
same,IFN-γ mean,"Table 9, mean of donors",0 pg/mL
same,"activity when formulated with cPLGA, in words",,good activity when formulated with cPLGA
same,"immunomodulatory activity (IFN-γ / IFN-α secretion), in words",,inactive as a CIC alone
5′-TCGTCGA-3′-(HEG)6-5′-TCGTCGA-3′ (phosphodiester linkages) [Compound C-36],"activity when formulated with cPLGA, in words",,significantly more active when formulated with cPLGA
same,"immunomodulatory activity (IFN-γ / IFN-α secretion), in words",,inactive as CICs alone
(5′-TCGTCGA-3′-HEG)2-glycerol-HEG-5′-AACGTTC-3′-HEG-5′-TCGACGT-3′ [Compound C-100],IFN-α,"Table 24, donor 28234",16 pg/mL
same,IFN-γ,"Table 24, donor 28234",27 pg/mL
same,IFN-α,"Table 24, donor 28235",16 pg/mL
same,IFN-γ,"Table 24, donor 28235",183 pg/mL
same,IFN-α,"Table 24, donor 28236",398 pg/mL
same,IFN-γ,"Table 24, donor 28236",490 pg/mL
same,IFN-α,"Table 24, donor 28237",193 pg/mL
same,IFN-γ,"Table 24, donor 28237",1907 pg/mL
same,IFN-α mean,[6],156 pg/mL
same,IFN-γ mean,[6],652 pg/mL
5′-TCGAGAT-3′-HEG-5′-TCGAGAT-3′-HEG-5′-TCGAGAT-3′ [Compound C-45],IFN-α,"Table 10, donor 28042",62 pg/mL
same,IFN-γ,"Table 10, donor 28042",590 pg/mL
same,IFN-α,"Table 10, donor 28043",123 pg/mL
same,IFN-γ,"Table 10, donor 28043",1466 pg/mL
same,IFN-α,"Table 10, donor 28044",152 pg/mL
same,IFN-γ,"Table 10, donor 28044",984 pg/mL
same,IFN-α,"Table 10, donor 28045",14 pg/mL
same,IFN-γ,"Table 10, donor 28045",253 pg/mL
same,IFN-α mean,"Table 10, mean of donors",88 pg/mL
same,IFN-γ mean,"Table 10, mean of donors",823 pg/mL
same,IFN-a,donor 28250,16 pg/mL
same,IFN-g,[1],107 pg/mL
same,IFN-a,donor 28251,109 pg/mL
same,IFN-g,donor 28251,26 pg/mL
same,IFN-a,donor 28252,55 pg/mL
same,IFN-g,donor 28252,95 pg/mL
same,IFN-a,donor 28253,382 pg/mL
same,IFN-g,donor 28253,8 pg/mL
same,IFN-a mean,,140 pg/mL
same,IFN-g mean,,59 pg/mL
same,IFN-α,"donor 110, Table 14",446 pg/mL
same,IFN-γ,"donor 110, Table 14",880 pg/mL
same,IFN-α,"donor 112, Table 14",130 pg/mL
same,IFN-γ,"donor 112, Table 14",192 pg/mL
same,IFN-α,"donor 119, Table 14",1074 pg/mL
same,IFN-γ,"donor 119, Table 14",52 pg/mL
same,IFN-α,"donor 120, Table 14",428 pg/mL
same,IFN-γ,"donor 120, Table 14",36 pg/mL
same,IFN-α (pg/ml) mean,[5],520 pg/mL
same,IFN-γ (pg/ml) mean,[5],290 pg/mL
same,"IFN-α induction, in words",used alone,generated more IFN-α than CICs containing a 5′-TCGT-3′
HEG-5′-TCGTCG-3′-HEG-5′-ACGTTCG-3′-HEG-5′-AGATGAT-3′-TEG [Compound C-30],IFN-α,"Table 9, donor 28089",134 pg/mL
same,IFN-γ,"Table 9, donor 28089",0 pg/mL
same,IFN-α,"Table 9, donor 28090",29 pg/mL
same,IFN-γ,"Table 9, donor 28090",6 pg/mL
same,IFN-α,"Table 9, donor 28098",52 pg/mL
same,IFN-γ,"Table 9, donor 28098",12 pg/mL
same,IFN-α,"Table 9, donor 28099",47 pg/mL
same,IFN-γ,"Table 9, donor 28099",20 pg/mL
same,IFN-α mean,"Table 9, mean of donors",65 pg/mL
same,IFN-γ mean,"Table 9, mean of donors",9 pg/mL
5′-TCG-3′-HEG-5′-TCG-3′-HEG-5′-TCG-3′-HEG-5′-TCG-3′-HEG-5′-TCG-3′-HEG-5′-TCG-3′ [Compound C-32],IFN-α,"Table 9, donor 28089",285 pg/mL
same,IFN-γ,"Table 9, donor 28089",0 pg/mL
same,IFN-α,"Table 9, donor 28090",31 pg/mL
same,IFN-γ,"Table 9, donor 28090",5 pg/mL
same,IFN-α,"Table 9, donor 28098",46 pg/mL
same,IFN-γ,"Table 9, donor 28098",11 pg/mL
same,IFN-α,"Table 9, donor 28099",59 pg/mL
same,IFN-γ,"Table 9, donor 28099",35 pg/mL
same,IFN-α mean,"Table 9, mean of donors",106 pg/mL
same,IFN-γ mean,"Table 9, mean of donors",13 pg/mL
same,IFN-α,"Table 10, donor 28042",0 pg/mL
same,IFN-γ,"Table 10, donor 28042",91 pg/mL
same,IFN-α,"Table 10, donor 28043",0 pg/mL
same,IFN-γ,"Table 10, donor 28043",19 pg/mL
same,IFN-α,"Table 10, donor 28044",8 pg/mL
same,IFN-γ,"Table 10, donor 28044",78 pg/mL
same,IFN-α,"Table 10, donor 28045",0 pg/mL
same,IFN-γ,"Table 10, donor 28045",17 pg/mL
same,IFN-α mean,"Table 10, mean of donors",2 pg/mL
same,IFN-γ mean,"Table 10, mean of donors",51 pg/mL
same,"activity when formulated with cPLGA, in words",,more activity when formulated with cPLGA; also recorded: induced considerable IFN-γ and IFN-α when formulated with cPLGA
same,"immunomodulatory activity (IFN-γ / IFN-α secretion), in words",,had activity when used alone
"5′-ACGTTCG-3′ [Compound P-3, reference compound]",IFN-α (pg/ml) Donor 3,"20 μg/ml, 24 h",0 pg/mL
same,IFN-γ (pg/ml) Donor 3,"20 μg/ml, 24 h",1 pg/mL
same,IFN-α (pg/ml) Donor 4,"20 μg/ml, 24 h",32 pg/mL
same,IFN-γ (pg/ml) Donor 4,"20 μg/ml, 24 h",3 pg/mL
same,IFN-a,donor 28250,16 pg/mL
same,IFN-g,[1],32 pg/mL
same,IFN-a,donor 28251,29 pg/mL
same,IFN-g,donor 28251,21 pg/mL
same,IFN-a,donor 28252,38 pg/mL
same,IFN-g,donor 28252,72 pg/mL
same,IFN-a,donor 28253,31 pg/mL
same,IFN-g,donor 28253,1 pg/mL
same,IFN-a mean,,29 pg/mL
same,IFN-g mean,,31 pg/mL
same,IFN-γ (pg/ml) 28065,[2],94 pg/mL
same,IFN-α (pg/ml) 28065,[2],0 pg/mL
same,IFN-α (pg/ml) 28066,[2],0 pg/mL
same,IFN-γ (pg/ml) 28066,[2],27 pg/mL
same,IFN-α (pg/ml) 28067,[2],5 pg/mL
same,IFN-γ (pg/ml) 28067,[2],1 pg/mL
same,IFN-α (pg/ml) 28068,[2],0 pg/mL
same,IFN-γ (pg/ml) 28068,[2],0 pg/mL
same,IFN-α (pg/ml) mean,[3],16 pg/mL
same,IFN-γ (pg/ml) mean,[3],2 pg/mL
same,IFN-α (pg/ml) mean,[4],1 pg/mL
same,IFN-γ (pg/ml) mean,[4],31 pg/mL
same,"immunomodulatory activity (IFN-γ / IFN-α secretion), in words",,did not have immunomodulatory activity
